In patent publication US6613317B1, “Volatile attractants for diabrotica species” (priority 1988, dated 2003):
Marks after values point to notes of the source that are not given here.

Columns and labels:
[1] = tested on: southern corn rootworm (SCR) adults; assay: Sticky trap attraction in corn, estragole analogues (Example 3); type: in vivo, Diabrotica undecimpunctata howardi; details: 100 mg per trap, n = 4
Outline: (§1)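 Cotton wicks dosed with 100 mg or 100 μL attractant per trap on TangleTrap-coated cartons, four replicates 10 m apart on 1 m posts at field edges of hybrid or sweet corn. Mean beetles caught after ~24 h; log-transformed ANOVA with Duncan's test, P=0.05.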

D. v. virgifera [2] = assay: Sticky trap attraction along hybrid corn, Pomology South Farms (Example 2); type: in vivo, Diabrotica virgifera virgifera; details: August 7; 100 mg per trap; n = 4
Description: (§2) The candidate lures in all experiments were purchased commercially and exceeded 98% purity. The test chemicals were applied by capillary micropipettes to cotton dental wicks which were attached to the tops of 1.0 liter cylindrical paper cartons covered with TangleTrap™ (Tanglefoot Co., Grand Rapids, Mich.). The sticky trap techniques used were as described in Example 1. Cinnamyl alcohol and para-methoxycinnamaldehyde, which are solids, were dissolved in glass-distilled acetone prior to dosing the cotton wicks. All treatments were applied at a dosage of 100 mg per trap. 1,2,4-trimethoxybenzene, indole, and trans-cinnamaldehyde were mixed in a ratio of 1:1:1, by weight, immediately prior to dosing the cotton wicks. Control traps had untreated cotton wicks. Four replicates of treated and untreated traps were randomly positioned 10 meters apart on top of 1 m high posts along the border of a eight foot wide strip cut through the middle of a 4.05 ha relict prairie at Trelease Woods (ca. two miles northeast of Urbana, Ill.). The field consisted primarily of Andropogon gerardii Vitman (big bluestem) and a variety of composites. The tests were conducted in mid-August of two years and were timed to coincide with the presence of D. cristata and D. barberi adults in the flower heads of Canada thistle (Carduus arvensis Robson). In the second year, several new attractants of D. v. virgifera and D. barberi were tested in Trelease Woods and along the edge of a 0.8 ha field of hybrid corn located at the Pomology South Farms, Urbana, Ill. Attraction of Diabrotica species to the various lures was measured by the mean number of beetles caught after 24-h. On one date in late August of the first year, D. cristata and D. barberi were removed from the traps and sexed in the laboratory. The significance of treatments in all tests was determined by an analysis of variance and the individual means were separated by Duncan's multiple range test (Statistical Package for Social Science, Nie, et al., SPSS: statistical package for the social sciences, 2nd ed. McGraw-Hill, New York (1975). Data were logarithmically transformed for statistical analysis and the means and standard deviations are presented for the untransformed data.

[3] = tested on: western corn rootworm (WCR) adults; details: in vivo; cited from earlier work
[4] = tested on: northern corn rootworm (NCR) adults; assay: Sticky trap attraction in corn, estragole analogues (Example 3); type: in vivo, Diabrotica barberi; details: August 7 (Table 11); 100 mg per trap; n = 4
Outline: as §1

D. u. howardi [5] = assay: Sticky trap attraction in prairie habitat, Trelease Woods (Example 2); type: in vivo, Diabrotica undecimpunctata howardi; details: 100 mg per trap, n = 4
Outline: (§3)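 Lure-dosed cotton wicks (solids in acetone; untreated controls) on TangleTrap-coated cartons atop 1 m posts, four replicates 10 m apart in relict prairie, mid-August over two years. Read-out: mean beetles caught after 24-h; log-transformed ANOVA with Duncan's multiple range test.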

D. u. howardi [6] = assay: Sticky trap attraction along hybrid corn, Pomology South Farms (Example 2); type: in vivo, Diabrotica undecimpunctata howardi; details: August 7; 100 mg per trap; n = 4
Description: as §2

D. v. virgifera [7] = assay: Sticky trap attraction in prairie habitat, Trelease Woods (Example 2); type: in vivo, Diabrotica virgifera virgifera; details: 100 mg per trap, n = 4
Outline: as §3

D. cristata = assay: as above; type: in vivo, Diabrotica cristata; details: 100 mg per trap, n = 4
Outline: as §3

D. barberi [8] = assay: as above; type: in vivo, Diabrotica barberi; details: 100 mg per trap, n = 4
Outline: as §3

[9] = tested on: western corn rootworm (WCR) adults; assay: Sticky trap attraction in corn, estragole analogues (Example 3); type: in vivo, Diabrotica virgifera virgifera; details: 100 mg per trap
Outline: as §1

WCR = details: in vivo; cited from earlier work
D. barberi [10] = assay: Sticky trap attraction along hybrid corn, Pomology South Farms (Example 2); type: in vivo, Diabrotica barberi; details: August 7; 100 mg per trap; n = 4
Description: as §2

Q: What does the source list for `C=CCc1ccc(OC)cc1` [I, 4-methoxy-1-allylbenzene]?
A: Mean number of SCR adults per sticky trap (±standard deviation) after 24 hours ([1]; August 4 second year): 7.2 ± 5.1^a per sticky trap; Mean number of SCR adults per sticky trap (±standard deviation) after 24 hours ([1]; August 5 first year): 9.2 ± 5.6^a per sticky trap; Mean number of SCR (±standard deviation) per sticky trap after 24 hours ([1]; August 7 (Table 11)): 7.0 ± 4.5^a per sticky trap; Mean number of D. v. virgifera per stick trap per day (±standard deviation) in corn (D. v. virgifera [2]): 64.0 ± 15.9^b per stick trap per day; LR values for WCR attraction (literature) [3]: about 3 mg; Mean number of NCR (±standard deviation) per sticky trap after 24 hours [4]: 2.2 ± 2.1^ab per sticky trap; Mean number of D. u. howardi per day (±standard deviation) (D. u. howardi [5]; August 11, 1987): 0.3 ± 0.5^a per day; Mean number of D. u. howardi per day (±standard deviation) (D. u. howardi [5]; August 14, 1987): 0.5 ± 0.7^a per day; Mean number of D. u. howardi per sticky trap per day (±standard deviation) (D. u. howardi [5]; August 27, first year): 3.0 ± 2.8^a per sticky trap per day; Mean number of D. u. howardi per stick trap per day (±standard deviation) in corn (D. u. howardi [6]): 7.0 ± 4.5^a per stick trap per day; Mean number of D. v. virgifera per day (±standard deviation) (D. v. virgifera [7]; August 11, 1987): 0.3 ± 0.5^a per day; Mean number of D. v. virgifera per day (±standard deviation) (D. v. virgifera [7]; August 14, 1987): 0.3 ± 0.5^a per day; Mean number of D. v. virgifera per sticky trap per day (±standard deviation) (D. v. virgifera [7]; August 27, first year): 0 per sticky trap per day; Mean number of D. cristata per day (±standard deviation) (D. cristata; August 11, 1987): 13.5 ± 4.1^b per day; Mean number of D. cristata per day (±standard deviation) (D. cristata; August 14, 1987): 13.0 ± 4.2^c per day; Mean number of D. cristata per sticky trap per day (±standard deviation) (D. cristata; August 27, first year): 5.3 ± 1.0^b per sticky trap per day; Mean number of D. barberi per day (±standard deviation) (D. barberi [8]; August 11, 1987): 1.0 ± 2.0^a per day; Mean number of D. barberi per day (±standard deviation) (D. barberi [8]; August 14, 1987): 4.0 ± 0.8^b per day; Mean number of D. barberi per sticky trap per day (±standard deviation) (D. barberi [8]; August 27, first year): 6.5 ± 3.7^b per sticky trap per day; Mean number of WCR adults per sticky trap (±standard deviation) after 24 hours ([9]; August 4 second year, n = 4): 84.5 ± 19.7^d per sticky trap; Mean number of WCR adults per sticky trap (±standard deviation) after 24 hours ([9]; August 5 first year, n = 4): 17.2 ± 7.8^c per sticky trap; Mean number of WCR (±standard deviation) per sticky trap after 24 hours ([9]; August 7 (Table 11), n = 4): 64.0 ± 15.9^b per sticky trap; Relative percent activity as compared with the highest mean in the column (WCR) ([9]; August 29): 100%; Mean number of WCR per sticky trap (±standard deviation) after 24 hours ([9]; August 29, n = 4): 147.2 ± 46.5 per sticky trap; Relative percent activity as compared with the highest mean in the column (WCR) ([9]; July 30): 100%; Mean number of WCR per sticky trap (±standard deviation) after 24 hours ([9]; July 30, n = 4): 82.1 ± 8.6 per sticky trap; LR for WCR, most effective volatile attractants yet identified (WCR): 3 mg; Mean number of D. barberi per stick trap per day (±standard deviation) in corn (D. barberi [10]): 2.3 ± 2.1^ab per stick trap per day
